Results reported in US11149011B2, “Compounds and methods for IDO and TDO modulation, and indications therefor” (Plexxikon Inc., priority 2018, dated 2021).

How the values were obtained:
IDO1 = target: T1, IDO1 (Homo sapiens, UniProt P14902); assay: IDO enzymatic assay; assay type: biochemical; details: geometric mean; read-out: IDO1 GMean: IC50 (μM) (Biochemical Assay)
T1 construct: His tag (N); made in house; host or cells: E. coli
How it was run: (§1)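 Kynurenine formed after TCA hydrolysis (30 min, 50 °C) was quantified relative to full-reaction and no-enzyme controls, and IC50s were fitted. TDO reactions used 1 nM enzyme with 350 μM Trp and 0.4 μM methylene blue for 70 min; IDO reactions used 6 nM enzyme, 10 μM Trp, 5 μM methylene blue for 20 min; both at pH 6.5, room temperature.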

TDO = target: T2, TDO (Homo sapiens, UniProt P48775); assay: TDO enzymatic assay; details: geometric mean; read-out: TDO GMean: IC50 (μM) (Biochemical Assay)
T2 construct: His tag (N); made in house; host or cells: E. coli
T2 sequence (P48775 whole entry): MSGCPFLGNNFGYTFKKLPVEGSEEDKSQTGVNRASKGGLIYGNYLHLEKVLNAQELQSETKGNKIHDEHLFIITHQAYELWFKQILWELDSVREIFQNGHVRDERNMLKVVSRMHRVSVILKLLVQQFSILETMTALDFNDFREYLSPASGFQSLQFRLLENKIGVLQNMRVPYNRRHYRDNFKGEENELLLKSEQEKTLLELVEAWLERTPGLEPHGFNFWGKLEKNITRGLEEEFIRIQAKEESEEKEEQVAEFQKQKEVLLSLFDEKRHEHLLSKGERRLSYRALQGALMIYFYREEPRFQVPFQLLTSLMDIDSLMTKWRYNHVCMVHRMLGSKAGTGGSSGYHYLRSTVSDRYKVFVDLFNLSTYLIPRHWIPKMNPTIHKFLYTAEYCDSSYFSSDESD
How it was run: as §1

[1] = target: T3, IDO1-expressing HEK293 cell clones (Homo sapiens, UniProt P14902); assay: Cell based kynurenine assay, IDO1-expressing HEK293 cell clones; details: HEK293 cells, 24 hours of incubation, geometric mean; read-out: HEK293 IDO1 Kynurenine GMean IC50 (μM) (Cellular Assay)
T3 construct: expressed in transfected cells; host or cells: HEK293
T3 sequence (P14902 whole entry): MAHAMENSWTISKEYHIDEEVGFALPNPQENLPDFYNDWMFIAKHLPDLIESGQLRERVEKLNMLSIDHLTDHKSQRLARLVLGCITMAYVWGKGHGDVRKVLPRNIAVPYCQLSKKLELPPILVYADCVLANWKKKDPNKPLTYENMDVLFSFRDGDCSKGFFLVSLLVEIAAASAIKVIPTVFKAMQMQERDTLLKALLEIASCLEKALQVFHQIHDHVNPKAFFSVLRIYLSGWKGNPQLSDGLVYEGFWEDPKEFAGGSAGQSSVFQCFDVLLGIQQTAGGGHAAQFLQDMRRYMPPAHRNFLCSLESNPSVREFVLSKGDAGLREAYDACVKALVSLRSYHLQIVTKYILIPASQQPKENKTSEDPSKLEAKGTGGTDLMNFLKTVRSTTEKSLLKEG
How it was run: (§2)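 IC50s come from nonlinear regression of % inhibition of kynurenine in culture supernatant after 24 hours of compound exposure. Controls were 0.2% DMSO-treated cells and media alone. Cells were stable human IDO1- or TDO-expressing HEK293 clones (CMV promoter), plated at 2.5×10^4 per well.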

[2] = target: T4, TDO-expressing HEK293 cell clones (Homo sapiens, UniProt P48775); assay: Cell based kynurenine assay, TDO-expressing HEK293 cell clones; details: HEK293 cells, 24 hours of incubation, geometric mean; read-out: HEK293 TDO Kynurenine GMean IC50 (μM) (Cellular Assay)
T4 construct: expressed in transfected cells; host or cells: HEK293
T4 sequence (P48775 whole entry): as the sequence (P48775 whole entry) above
How it was run: as §2

T1 sequence (P14902 whole entry): as the sequence (P14902 whole entry) above

SMILES	IC50 (IDO1) [µM]	IC50 (TDO) [µM]	IC50 [1] [µM]	IC50 [2] [µM]
CC(C)(C1CCN(C(=O)NOc2ccccc2)CC1)[C@H](O)c1cc(Cl)cc2cn[nH]c12 [Compound P-0066, (S)-4-(1-(5-chloro-1H-indazol-7-yl)-1-hydroxy-2-methylpropan-2-yl)-N-phenoxypiperidine-1-carboxamide]	0.0001 to 10	0.0001 to 10	0.0001 to 10	0.0001 to 10
CC(C)(N)C(=O)N1CCC(C(C)(C)[C@H](O)c2cc(Cl)cc3cn[nH]c23)CC1 [Compound P-0067, (S)-2-amino-1-(4-(1-(5-chloro-1H-indazol-7-yl)-1-hydroxy-2-methylpropan-2-yl)piperidin-1-yl)-2-methylpropan-1-one]	0.0001 to 10	0.0001 to 10	0.0001 to 10	0.0001 to 10
CC(C)(C1CCN(C(=O)NC2CCC2)CC1)C(O)c1cc(Cl)cc2[nH]ncc12 (centres unmarked) [Compound P-0078, 4-(1-(6-chloro-1H-indazol-4-yl)-1-hydroxy-2-methylpropan-2-yl)-N-cyclobutylpiperidine-1-carboxamide]	0.0001 to 10	0.0001 to 10	0.0001 to 10	0.0001 to 10
CC(C)(C1CCN(C(=O)NC2CCOCC2)CC1)C(O)c1cc(Cl)cc2[nH]ncc12 (centres unmarked) [Compound P-0079, 4-(1-(6-chloro-1H-indazol-4-yl)-1-hydroxy-2-methylpropan-2-yl)-N-(tetrahydro-2H-pyran-4-yl)piperidine-1-carboxamide]	0.0001 to 10	0.0001 to 10	0.0001 to 10	0.0001 to 10
CC(C)(C1CCN(C(=O)NCC2CC2)CC1)C(O)c1cc(Cl)cc2[nH]ncc12 (centres unmarked) [Compound P-0080, 4-(1-(6-chloro-1H-indazol-4-yl)-1-hydroxy-2-methylpropan-2-yl)-N-(cyclopropylmethyl)piperidine-1-carboxamide]	0.0001 to 10	0.0001 to 10	0.0001 to 10	0.0001 to 10
CC(C)(C1CCN(C(=O)NC2CC2)CC1)C(O)c1cc(Cl)cc2[nH]ncc12 (centres unmarked) [Compound P-0081, 4-(1-(6-chloro-1H-indazol-4-yl)-1-hydroxy-2-methylpropan-2-yl)-N-cyclopropylpiperidine-1-carboxamide]	0.0001 to 10	0.0001 to 10	0.0001 to 10	0.0001 to 10
CC(C)(C1CCN(C(=O)Nc2ccc(F)cc2F)CC1)C(O)c1cc(Cl)cc2[nH]ncc12 (centres unmarked) [Compound P-0082, 4-(1-(6-chloro-1H-indazol-4-yl)-1-hydroxy-2-methylpropan-2-yl)-N-(2,4-difluorophenyl)piperidine-1-carboxamide]	0.0001 to 10	0.0001 to 10	> 10	0.0001 to 10
CC(C)(C1CCN(C(=O)NCCC(F)(F)F)CC1)C(O)c1cc(Cl)cc2[nH]ncc12 (centres unmarked) [Compound P-0086, 4-(1-(6-chloro-1H-indazol-4-yl)-1-hydroxy-2-methylpropan-2-yl)-N-(3,3,3-trifluoropropyl)piperidine-1-carboxamide]	0.0001 to 10	0.0001 to 10	0.0001 to 10	0.0001 to 10
CC(C)(C1CCN(C(=O)NCC#N)CC1)C(O)c1cc(Cl)cc2[nH]ncc12 (centres unmarked) [Compound P-0087, 4-(1-(6-chloro-1H-indazol-4-yl)-1-hydroxy-2-methylpropan-2-yl)-N-(cyanomethyl)piperidine-1-carboxamide]	0.0001 to 10	0.0001 to 10	> 10	0.0001 to 10

More lines, now with the values ahead:

IC50 (IDO1) [µM]	IC50 (TDO) [µM]	IC50 [1] [µM]	IC50 [2] [µM]	SMILES
0.0001 to 10	0.0001 to 10	0.0001 to 10	0.0001 to 10	CCCS(=O)(=O)N1CCC(C(C)(C)C(O)c2cc(Cl)cc3[nH]ncc23)CC1 (centres unmarked) [Compound P-0071]
0.0001 to 10	0.0001 to 10	> 10	0.0001 to 10	CCS(=O)(=O)N1CCC(C(C)(C)C(O)c2cc(Cl)cc3[nH]ncc23)CC1 (centres unmarked) [Compound P-0072, 1-(6-chloro-1H-indazol-4-yl)-2-(1-(ethylsulfonyl)piperidin-4-yl)-2-methylpropan-1-ol]
0.0001 to 10	0.0001 to 10	> 10	0.0001 to 10	CC(C)(C1CCN(S(=O)(=O)C2CC2)CC1)C(O)c1cc(Cl)cc2[nH]ncc12 (centres unmarked) [Compound P-0073, 1-(6-chloro-1H-indazol-4-yl)-2-(1-(cyclopropylsulfonyl)piperidin-4-yl)-2-methylpropan-1-ol]
0.0001 to 10	0.0001 to 10	0.0001 to 10	0.0001 to 10	CC(C)NC(=O)N1CCC(C(C)(C)C(O)c2cc(Cl)cc3[nH]ncc23)CC1 (centres unmarked) [Compound P-0074, 4-(1-(6-chloro-1H-indazol-4-yl)-1-hydroxy-2-methylpropan-2-yl)-N-isopropylpiperidine-1-carboxamide]
0.0001 to 10	0.0001 to 10	> 10	0.0001 to 10	CC(C)(C1CCN(C(=O)Nc2cccnc2)CC1)C(O)c1cc(Cl)cc2[nH]ncc12 (centres unmarked) [Compound P-0075, 4-(1-(6-chloro-1H-indazol-4-yl)-1-hydroxy-2-methylpropan-2-yl)-N-(pyridin-3-yl)piperidine-1-carboxamide]
0.0001 to 10	0.0001 to 10	0.0001 to 10	0.0001 to 10	CCNC(=O)N1CCC(C(C)(C)C(O)c2cc(Cl)cc3[nH]ncc23)CC1 (centres unmarked) [Compound P-0076, 4-(1-(6-chloro-1H-indazol-4-yl)-1-hydroxy-2-methylpropan-2-yl)-N-ethylpiperidine-1-carboxamide]
0.0001 to 10	0.0001 to 10	0.0001 to 10	0.0001 to 10	CCCNC(=O)N1CCC(C(C)(C)C(O)c2cc(Cl)cc3[nH]ncc23)CC1 (centres unmarked) [Compound P-0077, 4-(1-(6-chloro-1H-indazol-4-yl)-1-hydroxy-2-methylpropan-2-yl)-N-propylpiperidine-1-carboxamide]
0.0001 to 10	0.0001 to 10	0.0001 to 10	0.0001 to 10	COCCNC(=O)N1CCC(C(C)(C)C(O)c2cc(Cl)cc3[nH]ncc23)CC1 (centres unmarked) [Compound P-0083, 4-(1-(6-chloro-1H-indazol-4-yl)-1-hydroxy-2-methylpropan-2-yl)-N-(2-methoxyethyl)piperidine-1-carboxamide]
0.0001 to 10	0.0001 to 10	0.0001 to 10	0.0001 to 10	CC(C)(C1CCN(C(=O)NCC(F)(F)F)CC1)C(O)c1cc(Cl)cc2[nH]ncc12 (centres unmarked) [Compound P-0084, 4-(1-(6-chloro-1H-indazol-4-yl)-1-hydroxy-2-methylpropan-2-yl)-N-(2,2,2-trifluoroethyl)piperidine-1-carboxamide]
0.0001 to 10	0.0001 to 10	> 10	0.0001 to 10	CC(C)(C1CCN(C(=O)NCCS(C)(=O)=O)CC1)C(O)c1cc(Cl)cc2[nH]ncc12 (centres unmarked) [Compound P-0085, 4-(1-(6-chloro-1H-indazol-4-yl)-1-hydroxy-2-methylpropan-2-yl)-N-(2-(methylsulfonyl)ethyl)piperidine-1-carboxamide]
0.0001 to 10	0.0001 to 10	> 10	0.0001 to 10	C#CCNC(=O)N1CCC(C(C)(C)C(O)c2cc(Cl)cc3[nH]ncc23)CC1 (centres unmarked) [Compound P-0088, 4-(1-(6-chloro-1H-indazol-4-yl)-1-hydroxy-2-methylpropan-2-yl)-N-(prop-2-yn-1-yl)piperidine-1-carboxamide]
